Laboratory results: article PMC3097197 (PLoS ONE, 2011)
“Also recorded” adds a separate entry of the source.

Tests used:
[1] = tested on: YopE secretion by attenuated Y. pestis; test: microbe, parasite or virus in culture; type: cell-based, Yersinia pestis KIM19; details: for inhibition at 10 µM / inhibition at 100 µM: Yersinia pestis, 1 h; for inhibition at 10 µM: read-out: Inhibition of YopE secretion at 10 µM; for inhibition at 100 µM: read-out: Inhibition of YopE secretion at 100 µM
in vitro = details: human, hela cells
[2] = tested on: Attenuated Y. pestis KIM19 strain; type: cell-based, Yersinia pestis
[3] = tested on: HeLa cells incubated with attenuated Y. pestis KIM19 strain; test: cells; details: Homo sapiens, 3 h; for inhibition at 10 µM: read-out: Inhibition of HeLa cell toxicity by attenuated Y. pestis at 10 µM; for inhibition at 50 µM: read-out: Inhibition of HeLa cell toxicity by attenuated Y. pestis at 50 µM
[4] = tested on: HeLa cells incubated with attenuated Y. pestis KIM19 strain

In the case of `Cc1ccc(S(=O)(=O)N2CCCN(c3ccc([N+](=O)[O-])c4nonc34)CC2)cc1` [Compound 1504], the “Inhibition of YopE secretion (in words)” value [1] is reported as “poor inhibitors of the YopE secretion”.
For `O=C(Cc1csc(NC(=O)c2ccccc2)n1)Nn1cnc2scc(-c3ccco3)c2c1=O` [Compound 7086], the cytotoxicity at 100 µM (in vitro) was 26 ± 11%, the “Effect on growth rate of Y. pestis in bacterial medium (in words)” value (“Effect on growth rate of Y. pestis” below) [2] was “small bacteriostatic effect; also recorded: some bacteriostatic effect; also recorded: slight inhibition of bacterial growth” and the “Inhibition of YopE secretion at 50 µM or lower concentration” value [1] was “at least 50%”. The inhibition at 10 µM [1] was no less than 95%, the inhibition at 100 µM [1] was no less than 80% and the inhibition at 10 µM [3] was 0%. For the same compound, the inhibition at 50 µM [3] was 20% and the “Effectiveness in the cell infection model (in words)” value (“Effectiveness” below) [4] was “only moderately effective”.
With `CC(=O)Nc1ccc(-c2csc(NC(=O)c3sc4nc(C)cc(C)c4c3C)n2)c(F)c1` [Compound 7146] the “Inhibition of YopE secretion (in words)” value [1] was “poor inhibitors of the YopE secretion”.
For `CC(=O)Nc1ccc(N2C(=O)c3ccc(C(=O)OC(C)C(=O)c4c[nH]c5ccccc45)cc3C2=O)cc1` (stereo not shown) [Compound 7812], the cytotoxicity at 100 µM (in vitro) was 0%, the “Effect on growth rate of Y. pestis” value [2] was “none of them had a significant effect on the growth rate; also recorded: minimal bacterial growth inhibition” and the “Inhibition of YopE secretion at 50 µM or lower concentration” value [1] was “at least 50%”. For the same compound, the inhibition at 10 µM [1] was no less than 95%, the inhibition at 100 µM [1] was no less than 80% and the inhibition at 10 µM [3] was 0%. The inhibition at 50 µM [3] was 0% and the “Effectiveness” value [4] was “only moderately effective”.
For `O=C(CNC(=O)c1sc2ccccc2c1Cl)Nc1ccc(-n2cnc3ccccc32)cc1` [Compound 7832], the cytotoxicity at 100 µM (in vitro) was 0%, the “Effect on growth rate of Y. pestis” value [2] was “none of them had a significant effect on the growth rate; also recorded: minimal bacterial growth inhibition” and the “Inhibition of YopE secretion at 50 µM or lower concentration” value [1] was “at least 50%”. It also gave an inhibition at 10 µM [1] of no less than 95%, an inhibition at 100 µM [1] of no less than 80% and an inhibition at 10 µM [3] of 0%. For the same compound, the inhibition at 50 µM [3] was 30% and the “Effectiveness” value [4] was “only moderately effective”.
Work on `CNC(=O)C1CN(C(=O)COC(=O)c2cc(-c3cccs3)nc3ccccc23)c2ccccc2O1` (stereo not shown) [Compound 9652] yielded an inhibition at 100 µM [1] of 30%.
With Methanol [reference compound] the “Cytotoxicity against HeLa cells, inhibition at 100 µM” value (human HeLa cells) was 100±1%.
